Measured values taken from patent US10485235B2, “Aryloxypyrimidinyl ethers as herbicides” (FMC Corporation, priority 2015, dated 2019).

Legend:
Format in all cases: in vivo
[1] = tested on: ducksalad (Heteranthera limosa); assay: Test B flooded paddy test, ducksalad; conditions: 250 g ai/ha, Flood; visual rating after 13 to 15 days; scale 0 to 100, 0 is no effect, 100 is complete control
Method in brief: (§1)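 Visual injury scored 0 (no effect) to 100 (complete control) relative to controls 13-15 days after treatment in greenhouse. Treatment: test compound added into paddy water of pots flooded 3 cm over soil, holding 2-leaf-stage plants; water level kept constant.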

[2] = tested on: foxtail, giant (giant foxtail, Setaria faberii); assay: Test A preemergence, giant foxtail; conditions: Preemergence, 0 to 100 scale (0 no effect, 100 complete control)
Method in brief: (§2)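 Compounds, formulated in a surfactant-containing solvent mixture that is non-phytotoxic, are sprayed onto soil after seeding (preemergence) or onto young plants, one to two leaves and 2 to 10 cm high (postemergence). Response is scored visually after around 10 days, where 0 means no effect and 100 means complete control.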

[3] = tested on: barnyardgrass (Echinochloa crus-galli); assay: Test B flooded paddy test, barnyardgrass; conditions: 250 g ai/ha, Flood; visual rating after 13 to 15 days; scale 0 to 100, 0 is no effect, 100 is complete control
Method in brief: as §1

[4] = tested on: kochia (Kochia scoparia); assay: Test A preemergence, kochia; conditions: Preemergence, 0 to 100 scale (0 no effect, 100 complete control)
Method in brief: as §2

[5] = tested on: pigweed (Amaranthus retroflexus); assay: Test A postemergence, pigweed; conditions: postemergence, 0 to 100 scale, 0 is no effect, 100 is complete control, approximately 10 days
Method in brief: as §2

[6] = tested on: blackgrass (Alopecurus myosuroides); assay: Test A postemergence, blackgrass; conditions: postemergence, 0 to 100 scale, 0 is no effect, 100 is complete control, approximately 10 days
Method in brief: as §2

[7] = tested on: ryegrass, Italian (Italian ryegrass, Lolium multiflorum); assay: Test A preemergence, Italian ryegrass; conditions: Preemergence, 0 to 100 scale (0 no effect, 100 complete control)
Method in brief: as §2

[8] = tested on: ragweed (common ragweed, Ambrosia elatior); assay: Test A postemergence, ragweed; conditions: postemergence, 0 to 100 scale, 0 is no effect, 100 is complete control, approximately 10 days
Method in brief: as §2

[9] = tested on: barnyardgrass (Echinochloa crus-galli); assay: Test A postemergence, barnyardgrass; conditions: postemergence, 0 to 100 scale, 0 is no effect, 100 is complete control, approximately 10 days
Method in brief: as §2

[10] = tested on: ryegrass, Italian (Italian ryegrass, Lolium multiflorum); assay: Test A postemergence, Italian ryegrass; conditions: postemergence, 0 to 100 scale, 0 is no effect, 100 is complete control, approximately 10 days
Method in brief: as §2

[11] = tested on: wheat (Triticum aestivum); assay: Test A postemergence, wheat; conditions: postemergence, 0 to 100 scale, 0 is no effect, 100 is complete control, approximately 10 days
Method in brief: as §2

[12] = tested on: sedge, umbrella (small-flower umbrella sedge, Cyperus difformis); assay: Test B flooded paddy test, umbrella sedge; conditions: 250 g ai/ha, Flood; visual rating after 13 to 15 days; scale 0 to 100, 0 is no effect, 100 is complete control
Method in brief: as §1

[13] = tested on: kochia (Kochia scoparia); assay: Test A postemergence, kochia; conditions: postemergence, 0 to 100 scale, 0 is no effect, 100 is complete control, approximately 10 days
Method in brief: as §2

[14] = tested on: corn (Zea mays); assay: Test A postemergence, corn; conditions: postemergence, 0 to 100 scale, 0 is no effect, 100 is complete control, approximately 10 days
Method in brief: as §2

[15] = tested on: barnyardgrass (Echinochloa crus-galli); assay: Test A preemergence, barnyardgrass; conditions: Preemergence, 0 to 100 scale (0 no effect, 100 complete control)
Method in brief: as §2

[16] = tested on: galium (catchweed bedstraw, Galium aparine); assay: Test A postemergence, galium; conditions: postemergence, 0 to 100 scale, 0 is no effect, 100 is complete control, approximately 10 days
Method in brief: as §2

[17] = tested on: rice (Oryza sativa); assay: Test B flooded paddy test, rice; conditions: 250 g ai/ha, Flood; visual rating after 13 to 15 days; scale 0 to 100, 0 is no effect, 100 is complete control
Method in brief: as §1

[18] = tested on: foxtail, giant (giant foxtail, Setaria faberii); assay: Test A postemergence, giant foxtail; conditions: postemergence, 0 to 100 scale, 0 is no effect, 100 is complete control, approximately 10 days
Method in brief: as §2

[19] = tested on: pigweed (Amaranthus retroflexus); assay: Test A preemergence, pigweed; conditions: Preemergence, 0 to 100 scale (0 no effect, 100 complete control)
Method in brief: as §2

[20] = tested on: ragweed (common ragweed, Ambrosia elatior); assay: Test A preemergence, ragweed; conditions: Preemergence, 0 to 100 scale (0 no effect, 100 complete control)
Method in brief: as §2

Row | Structure (SMILES) | Plant response rating, Ducksalad [1] | Plant response rating, Foxtail, Giant ([2]; 125 g ai/ha) | Plant response rating, Barnyardgrass [3] | Plant response rating, Kochia ([4]; 125 g ai/ha) | Plant response rating, Pigweed ([5]; 125 g ai/ha) | Plant response rating, Blackgrass ([6]; 125 g ai/ha) | Plant response rating, Ryegrass, Italian ([7]; 125 g ai/ha) | Plant response rating, Ragweed ([8]; 125 g ai/ha) | Plant response rating, Barnyardgrass ([9]; 125 g ai/ha) | Plant response rating, Ryegrass, Italian ([10]; 125 g ai/ha) | Plant response rating, Wheat ([11]; 125 g ai/ha) | Plant response rating, Sedge, Umbrella [12] | Plant response rating, Kochia ([13]; 125 g ai/ha) | Plant response rating, Corn ([14]; 125 g ai/ha) | Plant response rating, Barnyardgrass ([15]; 125 g ai/ha) | Plant response rating, Galium ([16]; 125 g ai/ha) | Plant response rating, Rice [17] | Plant response rating, Foxtail, Giant ([18]; 125 g ai/ha) | Plant response rating, Pigweed ([19]; 125 g ai/ha) | Plant response rating, Ragweed ([20]; 125 g ai/ha) | other results
1 | Fc1cccc(Oc2ncc(Cl)cn2)c1OC/C=C/C(F)(F)F [Compound 25] | 100 | 100 | 0 | 30 | 50 | 20 | 60 | 0 | 40 | 0 | 0 | 75 | 90 | 10 | 90 | 50 | 0 | 30 | 100 | 0 | Plant response rating, Foxtail, Giant ([2]; 500 g ai/ha): 100; Plant response rating, Kochia ([4]; 500 g ai/ha): 100; Plant response rating, Pigweed ([5]; 500 g ai/ha): 70; Plant response rating, Blackgrass ([6]; 500 g ai/ha): 80; Plant response rating, Ryegrass, Italian ([7]; 500 g ai/ha): 100; Plant response rating, Ragweed ([8]; 500 g ai/ha): 0; Plant response rating, Barnyardgrass ([9]; 500 g ai/ha): 90; Plant response rating, Ryegrass, Italian ([10]; 500 g ai/ha): 70; Plant response rating, Wheat ([11]; 500 g ai/ha): 20; Plant response rating, Kochia ([13]; 500 g ai/ha): 100; Plant response rating, Corn ([14]; 500 g ai/ha): 20; Plant response rating, Barnyardgrass ([15]; 500 g ai/ha): 100; Plant response rating, Galium ([16]; 500 g ai/ha): 100; Plant response rating, Foxtail, Giant ([18]; 500 g ai/ha): 80; Plant response rating, Pigweed ([19]; 500 g ai/ha): 100; Plant response rating, Ragweed ([20]; 500 g ai/ha): 20
2 | FCCCOc1c(F)cccc1Oc1ncc(Cl)cn1 [Compound 26] | 30 | 50 | 0 | 10 | 60 | 0 | 0 | 0 | 10 | 0 | 0 | 0 | 60 | 0 | 40 | 70 | 0 | 10 | 90 | 0 | Plant response rating, Foxtail, Giant ([2]; 500 g ai/ha): 100; Plant response rating, Kochia ([4]; 500 g ai/ha): 100; Plant response rating, Pigweed ([5]; 500 g ai/ha): 90; Plant response rating, Blackgrass ([6]; 500 g ai/ha): 50; Plant response rating, Ryegrass, Italian ([7]; 500 g ai/ha): 20; Plant response rating, Ragweed ([8]; 500 g ai/ha): 20; Plant response rating, Barnyardgrass ([9]; 500 g ai/ha): 60; Plant response rating, Ryegrass, Italian ([10]; 500 g ai/ha): 0; Plant response rating, Wheat ([11]; 500 g ai/ha): 0; Plant response rating, Kochia ([13]; 500 g ai/ha): 90; Plant response rating, Corn ([14]; 500 g ai/ha): 10; Plant response rating, Barnyardgrass ([15]; 500 g ai/ha): 100; Plant response rating, Galium ([16]; 500 g ai/ha): 50; Plant response rating, Foxtail, Giant ([18]; 500 g ai/ha): 70; Plant response rating, Pigweed ([19]; 500 g ai/ha): 100; Plant response rating, Ragweed ([20]; 500 g ai/ha): 20
3 | Fc1cccc(Oc2ncc(Cl)cn2)c1OCCCC(F)(F)F [Compound 27] | 90 | 80 | 0 | 70 | 50 | 30 | 40 | 0 | 50 | 0 | 0 | 70 | 80 | 0 | 90 | 30 | 0 | 20 | 90 | 0 | Plant response rating, Foxtail, Giant ([2]; 500 g ai/ha): 100; Plant response rating, Kochia ([4]; 500 g ai/ha): 100; Plant response rating, Pigweed ([5]; 500 g ai/ha): 60; Plant response rating, Blackgrass ([6]; 500 g ai/ha): 60; Plant response rating, Ryegrass, Italian ([7]; 500 g ai/ha): 90; Plant response rating, Ragweed ([8]; 500 g ai/ha): 10; Plant response rating, Barnyardgrass ([9]; 500 g ai/ha): 80; Plant response rating, Ryegrass, Italian ([10]; 500 g ai/ha): 30; Plant response rating, Wheat ([11]; 500 g ai/ha): 10; Plant response rating, Kochia ([13]; 500 g ai/ha): 100; Plant response rating, Corn ([14]; 500 g ai/ha): 10; Plant response rating, Barnyardgrass ([15]; 500 g ai/ha): 100; Plant response rating, Galium ([16]; 500 g ai/ha): 90; Plant response rating, Foxtail, Giant ([18]; 500 g ai/ha): 80; Plant response rating, Pigweed ([19]; 500 g ai/ha): 100; Plant response rating, Ragweed ([20]; 500 g ai/ha): 20
4 | Fc1cccc(Oc2ncc(Cl)cn2)c1OCCC(F)(F)F [Compound 29] | 50 | 70 | 0 | 40 | 50 | 0 | 10 | 0 | 20 | 0 | 0 | 0 | 40 | 0 | 70 | 20 | 0 | 20 | 100 | 0 | Plant response rating, Foxtail, Giant ([2]; 500 g ai/ha): 100; Plant response rating, Kochia ([4]; 500 g ai/ha): 100; Plant response rating, Pigweed ([5]; 500 g ai/ha): 100; Plant response rating, Blackgrass ([6]; 500 g ai/ha): 50; Plant response rating, Ryegrass, Italian ([7]; 500 g ai/ha): 70; Plant response rating, Ragweed ([8]; 500 g ai/ha): 10; Plant response rating, Barnyardgrass ([9]; 500 g ai/ha): 70; Plant response rating, Ryegrass, Italian ([10]; 500 g ai/ha): 20; Plant response rating, Wheat ([11]; 500 g ai/ha): 20; Plant response rating, Kochia ([13]; 500 g ai/ha): 80; Plant response rating, Corn ([14]; 500 g ai/ha): 10; Plant response rating, Barnyardgrass ([15]; 500 g ai/ha): 100; Plant response rating, Galium ([16]; 500 g ai/ha): 50; Plant response rating, Foxtail, Giant ([18]; 500 g ai/ha): 80; Plant response rating, Pigweed ([19]; 500 g ai/ha): 100; Plant response rating, Ragweed ([20]; 500 g ai/ha): 20
5 | N#Cc1cccc(Oc2ncc(F)cn2)c1OCCCF [Compound 30] | 30 | 30 | 0 | 90 | 0 | 0 | 20 | 10 | 10 | 40 | 0 | 40 | 10 | 0 | 20 | 0 | 0 | 0 | 80 | 30 | Plant response rating, Foxtail, Giant ([2]; 31 g ai/ha): 10; Plant response rating, Kochia ([4]; 31 g ai/ha): 90; Plant response rating, Pigweed ([5]; 31 g ai/ha): 0; Plant response rating, Blackgrass ([6]; 31 g ai/ha): 0; Plant response rating, Ryegrass, Italian ([7]; 31 g ai/ha): 0; Plant response rating, Ragweed ([8]; 31 g ai/ha): 0; Plant response rating, Barnyardgrass ([9]; 31 g ai/ha): 0; Plant response rating, Ryegrass, Italian ([10]; 31 g ai/ha): 30; Plant response rating, Wheat ([11]; 31 g ai/ha): 0; Plant response rating, Kochia ([13]; 31 g ai/ha): 0; Plant response rating, Corn ([14]; 31 g ai/ha): 0; Plant response rating, Barnyardgrass ([15]; 31 g ai/ha): 0; Plant response rating, Galium ([16]; 31 g ai/ha): 0; Plant response rating, Foxtail, Giant ([18]; 31 g ai/ha): 0; Plant response rating, Pigweed ([19]; 31 g ai/ha): 50; Plant response rating, Ragweed ([20]; 31 g ai/ha): 20
